According to ChEMBL document CHEMBL1201862, “PubChem BioAssay data set” (2004):
The source made the active and inactive calls.

Experiments:
[1] = target: T1, Mannose-6-phosphate isomerase (Homo sapiens, UniProt P34949); assay: PMI enzyme inhibitors, confirmation, biochemical, fluorescence intensity (AID 1535)
T1 sequence (P34949 whole entry): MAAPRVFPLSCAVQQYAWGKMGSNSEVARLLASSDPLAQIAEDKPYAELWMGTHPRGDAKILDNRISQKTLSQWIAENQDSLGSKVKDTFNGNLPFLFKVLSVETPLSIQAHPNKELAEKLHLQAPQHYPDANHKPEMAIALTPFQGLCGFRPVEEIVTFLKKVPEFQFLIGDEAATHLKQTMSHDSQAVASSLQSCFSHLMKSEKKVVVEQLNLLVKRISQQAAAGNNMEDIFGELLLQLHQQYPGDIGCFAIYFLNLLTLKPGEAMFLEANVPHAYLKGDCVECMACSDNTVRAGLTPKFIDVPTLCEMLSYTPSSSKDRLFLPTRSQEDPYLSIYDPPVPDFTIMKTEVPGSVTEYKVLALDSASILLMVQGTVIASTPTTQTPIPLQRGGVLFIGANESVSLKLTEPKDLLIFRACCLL

[2] = target: Phosphomannomutase 2 (Homo sapiens, UniProt O15305); assay: Counter screen SAR assay for PMM2 inhibitors via a fluorescence intensity assay. [Related pubchem assays (depositor defined):AID1545, AID1574]
[3] = target: Phosphoethanolamine/phosphocholine phosphatase (Homo sapiens, UniProt Q8TCT1); assay: SAR assay for compounds that inhibit PHOSPHO1. [Related pubchem assays (depositor defined):AID1545, AID1565, AID1574]
[4] = target: T2, Dual specificity protein phosphatase 3 (Homo sapiens, UniProt P51452); assay: VHR1 phosphatase inhibitors, primary screen, biochemical, absorbance, uHTS (AID 1654)
[5] = target: Photoreceptor-specific nuclear receptor (Homo sapiens, UniProt Q9Y5X4); format: functional;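 also: potency for compounds that break the NR2E3 corepressor complex and count as activators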
[6] = target: T3, Tyrosine-protein phosphatase non-receptor type 7 (Homo sapiens, UniProt P35236); format: functional
T3 sequence (P35236 whole entry): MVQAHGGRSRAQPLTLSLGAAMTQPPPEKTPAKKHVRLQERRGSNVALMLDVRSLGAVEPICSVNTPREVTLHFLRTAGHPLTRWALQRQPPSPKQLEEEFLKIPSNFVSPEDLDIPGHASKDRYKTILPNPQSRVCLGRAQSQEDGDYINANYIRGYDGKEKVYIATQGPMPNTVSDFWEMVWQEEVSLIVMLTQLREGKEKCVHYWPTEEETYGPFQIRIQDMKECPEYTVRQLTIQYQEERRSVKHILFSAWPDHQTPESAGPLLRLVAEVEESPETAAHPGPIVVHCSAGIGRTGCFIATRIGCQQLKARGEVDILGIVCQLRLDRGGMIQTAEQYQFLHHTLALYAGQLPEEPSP

[7] = cytotoxicity in HPDE-C7 cells, cell-based, fluorescence, HTS (AID 430); format: functional; details: Homo sapiens
[8] = inhibitors of intracellular T. cruzi replication, confirmation, NIH3T3 host cells, beta-gal luminescence (AID 2044); format: functional, cell-based;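 also: intracellular parasites grown in NIH/3T3 mouse fibroblasts as host cells; luminescent beta-galactosidase reporter signal from transgenic T. cruzi replicating inside host cells; inhibitors lower the luminescence signal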
[9] = microbe, parasite or virus in culture; format: functional; details: Mycobacterium tuberculosis
[10] = cytotoxicity in KRAS-transformed pancreatic duct cells, primary screen, cell-based, fluorescence, HTS (AID 431); format: functional; details: Homo sapiens;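 also: cell line used: HPDE-C7K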
[11] = target: T2, Dual specificity protein phosphatase 3; assay: VHR1 phosphatase inhibitors, biochemical (AID 1878)
[12] = cytotoxicity toward NIH3T3 fibroblasts, dose response, counter-screen, cell-based, ATP luminescence, mouse fibroblasts (AID 2010); format: functional;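 also: cells exposed to compound for about 90 hours before reading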
[13] = target: Peroxisome proliferator-activated receptor gamma/Nuclear receptor corepressor 2 (Homo sapiens, UniProt P37231+Q9Y618); format: functional
[14] = target: T4, Dual specificity protein phosphatase 6 (Rattus norvegicus, UniProt Q64346); assay: MKP-3 phosphatase inhibitors, primary screen, biochemical, rat enzyme, in vitro (AID 425)
T4 sequence (Q64346 whole entry): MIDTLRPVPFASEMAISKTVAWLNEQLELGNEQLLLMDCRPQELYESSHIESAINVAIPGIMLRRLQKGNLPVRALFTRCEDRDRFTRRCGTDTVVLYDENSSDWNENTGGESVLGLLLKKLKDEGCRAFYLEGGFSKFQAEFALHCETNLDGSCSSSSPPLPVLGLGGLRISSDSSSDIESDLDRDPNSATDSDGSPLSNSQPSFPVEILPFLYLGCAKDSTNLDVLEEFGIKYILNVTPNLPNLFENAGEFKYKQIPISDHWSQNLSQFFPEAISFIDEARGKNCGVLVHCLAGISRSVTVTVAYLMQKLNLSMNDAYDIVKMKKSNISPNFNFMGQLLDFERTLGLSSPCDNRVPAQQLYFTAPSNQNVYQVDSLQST

[15] = cytotoxicity in HEK-293T cells, dose response, cytotoxicity control for TCR NF-kB inhibitor project, luminescence, T-cell screen hits (AID 489026); format: functional, cell-based;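 also: cells exposed to compound about 14 hours before the viability readout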
[16] = Intein inhibitors as potential Tuberculosis drugs, a cytotoxicity screen. [Related pubchem assays (depositor defined):AID2221, AID2223, AID434968, AID435010, AID449749, AID449750, AID489010]; format: functional
[17] = target: Lysine-specific demethylase 4A (Homo sapiens, UniProt O75164); assay: JMJD2A histone demethylase inhibitors, dose response, selectivity assay for GASC-1 inhibitor project, biochemical, DELFIA europium, cherry-picked samples (AID 488840)
[18] = target: Lysine-specific demethylase 4C (Homo sapiens, UniProt Q9H3R0); assay: GASC-1 (JMJD2C) histone demethylase inhibitors, dose response, biochemical, DELFIA europium, cherry-picked samples (AID 488835); format: functional
[19] = target: T5, Replicative DNA helicase DnaB (Mycobacterium tuberculosis, UniProt P9WMR3); assay: DnaB intein splicing inhibitors, dose response, biochemical, cell-free fluorescence (AID 449749); format: functional
T5 sequence (P9WMR3 whole entry): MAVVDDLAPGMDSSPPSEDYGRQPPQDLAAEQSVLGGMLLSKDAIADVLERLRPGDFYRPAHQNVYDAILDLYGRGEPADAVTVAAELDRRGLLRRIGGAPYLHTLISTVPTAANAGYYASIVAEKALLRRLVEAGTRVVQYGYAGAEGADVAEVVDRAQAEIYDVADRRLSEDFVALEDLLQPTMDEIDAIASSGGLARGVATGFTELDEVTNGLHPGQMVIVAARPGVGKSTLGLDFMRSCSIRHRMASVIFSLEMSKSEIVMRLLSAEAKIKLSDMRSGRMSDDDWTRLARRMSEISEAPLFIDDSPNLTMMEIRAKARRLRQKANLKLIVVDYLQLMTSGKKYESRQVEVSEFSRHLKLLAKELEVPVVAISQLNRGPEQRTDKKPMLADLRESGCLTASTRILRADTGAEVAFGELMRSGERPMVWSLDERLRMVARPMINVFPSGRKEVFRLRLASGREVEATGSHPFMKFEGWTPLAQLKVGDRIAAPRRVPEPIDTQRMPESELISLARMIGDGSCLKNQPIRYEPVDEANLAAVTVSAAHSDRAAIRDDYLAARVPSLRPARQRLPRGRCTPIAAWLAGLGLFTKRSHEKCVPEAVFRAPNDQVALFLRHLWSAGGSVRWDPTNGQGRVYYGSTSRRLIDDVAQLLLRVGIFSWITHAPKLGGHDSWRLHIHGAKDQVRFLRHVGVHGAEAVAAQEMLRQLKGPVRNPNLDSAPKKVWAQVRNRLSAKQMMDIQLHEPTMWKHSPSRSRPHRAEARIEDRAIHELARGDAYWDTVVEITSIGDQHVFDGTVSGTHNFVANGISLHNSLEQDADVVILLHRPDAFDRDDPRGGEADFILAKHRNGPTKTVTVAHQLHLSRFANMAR

[20] = test system: INS1; assay: beta cell apoptosis inhibitors, cytokine rescue, dose response, luminescence, retest (AID 449756); format: functional, cell-based; details: Rattus norvegicus;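 also: cell death triggered by IL-1 beta plus TNF-alpha plus IFN-gamma mixture; protective hits raise ATP signal compared with cytokine alone wells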
[21] = target: Ras and Rab interactor 1/Tyrosine-protein kinase ABL1 (Homo sapiens, UniProt P00519+Q13671); format: functional;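 also: biochemical TR-FRET dose-response test measuring inhibition of binding between Rin1 and Abl proteins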
[22] = MDA-MB-231 cell growth inhibition, dose response, cytotoxicity control for RAD54 inhibitor project, CellTiter-Glo luminescence, cherry-pick (AID 651692); format: functional, cell-based
[23] = target: DNA repair and recombination protein RAD54-like (Homo sapiens, UniProt Q92698); assay: inhibitors of human RAD54 branch migration, confirmation, biochemical, fluorescence, cherry-picked samples, dose series (AID 651657); format: functional
[24] = inhibitors of PGC1a acetylation in cells, dose response, cell-based, cherry-picked samples (AID 720514); format: functional;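 also: potency may reflect raised or lowered acetylation signal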

T2 sequence (P51452 whole entry): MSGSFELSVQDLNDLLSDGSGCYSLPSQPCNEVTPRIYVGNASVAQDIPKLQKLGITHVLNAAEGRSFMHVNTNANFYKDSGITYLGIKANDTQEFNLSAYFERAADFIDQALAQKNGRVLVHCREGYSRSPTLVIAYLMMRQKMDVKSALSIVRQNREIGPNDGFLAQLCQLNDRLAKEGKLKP
Sequence of Photoreceptor-specific nuclear receptor (Q9Y5X4 whole entry): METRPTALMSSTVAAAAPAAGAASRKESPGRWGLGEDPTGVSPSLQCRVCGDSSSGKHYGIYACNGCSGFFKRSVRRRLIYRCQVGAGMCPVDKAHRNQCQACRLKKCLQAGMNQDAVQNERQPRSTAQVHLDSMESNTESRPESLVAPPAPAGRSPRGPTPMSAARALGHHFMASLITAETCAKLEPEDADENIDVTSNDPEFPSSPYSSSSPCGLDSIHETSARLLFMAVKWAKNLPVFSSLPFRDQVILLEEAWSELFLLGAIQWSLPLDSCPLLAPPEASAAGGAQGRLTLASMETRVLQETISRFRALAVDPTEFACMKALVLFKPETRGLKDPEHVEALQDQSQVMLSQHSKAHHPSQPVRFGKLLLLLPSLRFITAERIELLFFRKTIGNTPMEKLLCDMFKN
Sequence of Peroxisome proliferator-activated receptor gamma/Nuclear receptor corepressor 2 (P37231 whole entry): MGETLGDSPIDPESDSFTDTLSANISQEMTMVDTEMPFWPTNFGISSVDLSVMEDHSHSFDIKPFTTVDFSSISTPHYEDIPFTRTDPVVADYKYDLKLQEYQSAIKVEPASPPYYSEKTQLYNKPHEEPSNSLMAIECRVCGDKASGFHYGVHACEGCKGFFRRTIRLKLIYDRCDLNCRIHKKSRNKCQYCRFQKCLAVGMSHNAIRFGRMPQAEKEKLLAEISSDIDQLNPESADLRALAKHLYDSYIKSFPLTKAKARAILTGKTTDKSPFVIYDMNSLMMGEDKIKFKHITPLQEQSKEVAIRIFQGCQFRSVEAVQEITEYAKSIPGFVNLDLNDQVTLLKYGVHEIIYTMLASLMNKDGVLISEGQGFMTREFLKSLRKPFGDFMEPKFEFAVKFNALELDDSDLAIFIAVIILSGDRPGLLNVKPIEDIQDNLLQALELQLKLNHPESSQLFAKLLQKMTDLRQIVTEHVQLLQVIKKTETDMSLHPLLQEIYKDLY
Sequence of Peroxisome proliferator-activated receptor gamma/Nuclear receptor corepressor 2 (Q9Y618 whole entry): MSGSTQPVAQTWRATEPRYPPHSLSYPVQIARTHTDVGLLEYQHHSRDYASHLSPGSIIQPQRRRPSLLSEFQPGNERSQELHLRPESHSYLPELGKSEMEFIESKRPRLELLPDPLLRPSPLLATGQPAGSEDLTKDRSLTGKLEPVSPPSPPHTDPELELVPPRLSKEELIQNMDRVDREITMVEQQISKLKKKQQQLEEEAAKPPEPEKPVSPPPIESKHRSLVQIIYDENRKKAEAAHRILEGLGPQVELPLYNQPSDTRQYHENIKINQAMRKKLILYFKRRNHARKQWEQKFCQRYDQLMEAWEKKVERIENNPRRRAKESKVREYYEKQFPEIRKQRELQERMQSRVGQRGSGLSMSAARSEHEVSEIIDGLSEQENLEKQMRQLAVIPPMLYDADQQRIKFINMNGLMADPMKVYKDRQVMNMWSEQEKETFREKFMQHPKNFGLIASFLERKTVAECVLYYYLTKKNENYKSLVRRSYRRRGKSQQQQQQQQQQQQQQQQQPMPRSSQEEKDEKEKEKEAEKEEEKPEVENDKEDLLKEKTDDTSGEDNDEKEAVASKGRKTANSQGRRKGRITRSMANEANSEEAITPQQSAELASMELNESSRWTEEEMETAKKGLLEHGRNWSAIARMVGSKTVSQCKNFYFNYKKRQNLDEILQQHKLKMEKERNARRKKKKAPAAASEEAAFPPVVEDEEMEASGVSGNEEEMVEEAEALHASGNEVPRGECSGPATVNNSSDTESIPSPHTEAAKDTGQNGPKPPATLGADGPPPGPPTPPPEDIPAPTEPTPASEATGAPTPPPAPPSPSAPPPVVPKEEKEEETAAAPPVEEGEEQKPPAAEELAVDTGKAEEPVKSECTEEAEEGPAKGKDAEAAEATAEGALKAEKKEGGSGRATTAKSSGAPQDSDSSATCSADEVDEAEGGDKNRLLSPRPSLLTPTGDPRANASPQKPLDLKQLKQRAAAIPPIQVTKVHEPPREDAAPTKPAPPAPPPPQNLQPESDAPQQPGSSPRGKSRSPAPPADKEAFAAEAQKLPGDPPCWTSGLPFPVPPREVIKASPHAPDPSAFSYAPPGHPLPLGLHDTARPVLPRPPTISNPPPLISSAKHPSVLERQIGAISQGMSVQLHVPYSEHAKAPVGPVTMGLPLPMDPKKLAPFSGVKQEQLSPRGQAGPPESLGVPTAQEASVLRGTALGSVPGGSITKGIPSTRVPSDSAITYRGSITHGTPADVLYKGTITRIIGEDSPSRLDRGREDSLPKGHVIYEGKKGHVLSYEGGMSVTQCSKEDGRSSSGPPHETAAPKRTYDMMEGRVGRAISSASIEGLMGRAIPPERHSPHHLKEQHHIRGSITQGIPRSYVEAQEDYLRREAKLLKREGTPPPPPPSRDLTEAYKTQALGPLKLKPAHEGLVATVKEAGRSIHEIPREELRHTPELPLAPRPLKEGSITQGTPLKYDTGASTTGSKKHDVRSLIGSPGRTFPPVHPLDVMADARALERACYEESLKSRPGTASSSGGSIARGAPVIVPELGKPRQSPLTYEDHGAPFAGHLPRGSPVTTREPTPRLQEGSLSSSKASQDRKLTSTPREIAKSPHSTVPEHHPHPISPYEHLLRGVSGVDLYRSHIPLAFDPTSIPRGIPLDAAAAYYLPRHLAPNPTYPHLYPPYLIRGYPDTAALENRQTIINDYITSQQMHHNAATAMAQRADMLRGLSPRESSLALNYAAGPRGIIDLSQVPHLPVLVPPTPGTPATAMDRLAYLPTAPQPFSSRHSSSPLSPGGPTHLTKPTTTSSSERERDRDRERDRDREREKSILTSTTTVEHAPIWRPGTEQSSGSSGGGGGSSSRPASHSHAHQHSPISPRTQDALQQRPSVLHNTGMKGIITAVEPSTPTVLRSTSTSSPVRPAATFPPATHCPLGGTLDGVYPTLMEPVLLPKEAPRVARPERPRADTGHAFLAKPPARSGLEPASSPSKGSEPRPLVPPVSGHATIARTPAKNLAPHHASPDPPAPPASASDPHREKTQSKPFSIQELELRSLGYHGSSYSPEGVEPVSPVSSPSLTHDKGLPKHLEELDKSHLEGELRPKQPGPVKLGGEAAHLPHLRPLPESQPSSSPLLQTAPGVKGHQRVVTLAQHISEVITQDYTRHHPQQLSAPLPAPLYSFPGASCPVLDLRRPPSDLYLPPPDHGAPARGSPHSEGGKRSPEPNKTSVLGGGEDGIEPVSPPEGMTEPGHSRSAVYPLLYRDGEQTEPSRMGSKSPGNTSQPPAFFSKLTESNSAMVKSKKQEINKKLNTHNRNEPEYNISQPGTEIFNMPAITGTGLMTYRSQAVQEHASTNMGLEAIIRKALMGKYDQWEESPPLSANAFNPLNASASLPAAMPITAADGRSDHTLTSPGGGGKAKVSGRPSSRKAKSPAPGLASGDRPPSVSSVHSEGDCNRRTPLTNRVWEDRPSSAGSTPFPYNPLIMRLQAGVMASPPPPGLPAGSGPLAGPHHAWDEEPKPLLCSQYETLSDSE
Sequence of DNA repair and recombination protein RAD54-like (Q92698 whole entry): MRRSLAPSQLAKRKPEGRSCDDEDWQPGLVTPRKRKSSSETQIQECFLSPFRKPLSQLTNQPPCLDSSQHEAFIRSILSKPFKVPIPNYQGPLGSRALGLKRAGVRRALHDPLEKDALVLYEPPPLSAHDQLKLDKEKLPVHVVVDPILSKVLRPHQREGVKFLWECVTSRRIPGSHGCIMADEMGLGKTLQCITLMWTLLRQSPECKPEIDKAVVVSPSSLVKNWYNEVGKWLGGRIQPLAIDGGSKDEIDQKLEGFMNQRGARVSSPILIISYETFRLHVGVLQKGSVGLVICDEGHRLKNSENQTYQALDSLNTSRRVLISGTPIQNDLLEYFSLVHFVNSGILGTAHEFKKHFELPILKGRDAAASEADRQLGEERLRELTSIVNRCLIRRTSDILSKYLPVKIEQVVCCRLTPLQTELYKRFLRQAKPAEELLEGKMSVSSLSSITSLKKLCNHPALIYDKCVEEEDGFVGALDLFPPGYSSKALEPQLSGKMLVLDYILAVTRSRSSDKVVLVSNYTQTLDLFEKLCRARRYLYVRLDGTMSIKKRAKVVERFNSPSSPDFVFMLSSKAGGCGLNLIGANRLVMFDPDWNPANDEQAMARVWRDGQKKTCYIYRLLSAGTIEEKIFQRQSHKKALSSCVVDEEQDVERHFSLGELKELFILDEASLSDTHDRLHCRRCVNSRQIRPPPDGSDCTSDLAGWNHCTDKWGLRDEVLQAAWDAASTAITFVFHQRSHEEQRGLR
Sequence of Phosphomannomutase 2 (O15305 whole entry): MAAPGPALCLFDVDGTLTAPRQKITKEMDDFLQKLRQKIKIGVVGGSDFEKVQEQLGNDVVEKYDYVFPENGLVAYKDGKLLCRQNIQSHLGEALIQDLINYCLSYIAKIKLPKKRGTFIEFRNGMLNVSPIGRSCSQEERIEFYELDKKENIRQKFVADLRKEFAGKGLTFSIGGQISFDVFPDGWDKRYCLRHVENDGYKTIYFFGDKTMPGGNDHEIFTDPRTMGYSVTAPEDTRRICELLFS
Sequence of Phosphoethanolamine/phosphocholine phosphatase (Q8TCT1 whole entry): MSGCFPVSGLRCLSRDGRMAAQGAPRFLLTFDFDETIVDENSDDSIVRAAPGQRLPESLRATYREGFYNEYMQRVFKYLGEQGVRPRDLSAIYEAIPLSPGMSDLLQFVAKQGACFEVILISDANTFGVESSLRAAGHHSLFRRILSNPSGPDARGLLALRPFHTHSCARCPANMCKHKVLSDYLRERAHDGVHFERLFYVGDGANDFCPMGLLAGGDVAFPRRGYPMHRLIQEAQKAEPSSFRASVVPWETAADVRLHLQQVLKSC

O=c1c2c(OCC(F)(F)F)cc([N+](=O)[O-])cc2sn1-c1ccc(F)cc1
active: IC50 [1] 26.1 µM | IC50 [3] 0.577 µM
inactive: IC50 [2] > 100 µM

Cn1ncnc2c(=O)n(C)c(=O)nc1-2
active: IC50 [6] < 1.24 µM | EC50 [7] 0.47 µM | EC50 [8] 0.492 µM | CC50 [9] 7.98 µM | EC50 [10] 0.64 µM | IC50 [11] 1.36 µM | EC50 [12] 0.85 µM | IC50 [14] 2.32 µM | IC50 [15] 2 µM | CC50 [16] 10.3 µM | AC50 [17] 2.54 µM | AC50 [18] 0.541 µM | AC50 [19] 0.057 µM | AC50 [20] 0.627 µM | IC50 [21] 0.323 µM | AC50 [22] 1.8 µM | AC50 [23] 1.1 µM | AC50 [24] 0.463 µM
inactive: IC50 [4] < 0.98 µM
> 39.8 µM (not active): IC50 [5] | IC50 [13]
